Results: patent publication US5994334A, “Androgen synthesis inhibitors” (priority 1997, dated 1999)
“Also recorded” adds a separate entry of the source. Like-named read-outs stand apart in the source and are kept apart here.

Legend:
[1] = system: adrenal 17α-hydroxylase/C17,20-lyase; assay: Inhibition of adrenal 17α-hydroxylase/C17,20-lyase; type: biochemical; conditions: guinea pig adrenal
[2] = system: LNCaP human prostatic cancer cell line; assay: Androgen-dependent growth of LNCaP cells
Protocol: The ability of various inhibitors to reverse the stimulatory effect of testosterone on the growth of the LNCaP human prostatic cancer cell line was tested by comparing cell number in wells treated for 9 days with either drug vehicle only (control), 0.1 nM testosterone only, or 0.1 nM testosterone with inhibitor at 0.3, 1, 2.5, or 5 μM.

[3] = target: T1, Human Testicular C17,20-lyase (Homo sapiens, UniProt P05093); assay: Inhibition of human testicular C17,20-lyase (pregnenolone substrate, testicular microsomes); type: biochemical
T1 construct: incubating human testicular microsomes; from tissue; host or cells: human testis, microsomes
T1 sequence (P05093 1-508): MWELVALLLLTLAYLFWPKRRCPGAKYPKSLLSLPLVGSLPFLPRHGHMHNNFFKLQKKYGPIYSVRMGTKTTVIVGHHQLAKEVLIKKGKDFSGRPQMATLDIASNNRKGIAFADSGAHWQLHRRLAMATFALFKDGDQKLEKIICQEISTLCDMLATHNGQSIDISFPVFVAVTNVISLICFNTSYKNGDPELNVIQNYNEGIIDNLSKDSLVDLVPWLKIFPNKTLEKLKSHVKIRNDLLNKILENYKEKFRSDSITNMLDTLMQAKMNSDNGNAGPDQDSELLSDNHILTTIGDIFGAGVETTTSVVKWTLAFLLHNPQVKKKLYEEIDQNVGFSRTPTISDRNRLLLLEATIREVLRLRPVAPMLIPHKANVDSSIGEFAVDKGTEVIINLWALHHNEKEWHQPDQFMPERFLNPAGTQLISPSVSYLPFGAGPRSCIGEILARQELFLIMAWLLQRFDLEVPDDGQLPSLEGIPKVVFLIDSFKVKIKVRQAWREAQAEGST
Procedure, shortened: (§1)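 Human testicular microsomes were incubated with radiolabeled pregnenolone and a range of test compound concentrations. Substrate, 17α-hydroxypregnenolone and DHEA were separated and quantified by reverse-phase HPLC. Hydroxylase activity came from total conversion to 17α-hydroxypregnenolone plus DHEA; lyase activity from conversion to DHEA alone.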

[4] = target: T2, Human Testicular 17α-Hydroxylase (Homo sapiens, UniProt P05093); assay: Inhibition of human testicular 17α-hydroxylase (pregnenolone substrate, testicular microsomes); type: biochemical
T2 construct: incubating human testicular microsomes; from tissue; host or cells: human testis, microsomes
T2 sequence (P05093 1-508): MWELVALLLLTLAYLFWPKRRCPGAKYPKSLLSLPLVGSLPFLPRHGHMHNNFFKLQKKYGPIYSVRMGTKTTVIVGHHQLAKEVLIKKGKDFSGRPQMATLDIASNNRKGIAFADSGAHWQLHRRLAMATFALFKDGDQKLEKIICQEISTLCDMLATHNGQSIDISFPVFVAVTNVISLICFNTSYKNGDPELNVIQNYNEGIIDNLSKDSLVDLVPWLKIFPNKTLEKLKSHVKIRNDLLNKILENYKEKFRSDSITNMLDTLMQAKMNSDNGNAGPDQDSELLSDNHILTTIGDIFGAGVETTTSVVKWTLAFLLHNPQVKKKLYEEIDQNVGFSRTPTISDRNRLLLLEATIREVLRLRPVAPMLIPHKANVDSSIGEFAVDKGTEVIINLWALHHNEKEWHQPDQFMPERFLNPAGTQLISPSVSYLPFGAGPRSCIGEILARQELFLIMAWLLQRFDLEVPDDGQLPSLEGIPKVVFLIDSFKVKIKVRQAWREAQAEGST
Procedure, shortened: as §1

[5] = target: human androgen receptor (AR) (Homo sapiens, UniProt P10275); assay: Androgen receptor-mediated gene transcription, wild-type AR (luciferase, CV1 cells); type: cell-based; conditions: against DHT stimulation
[6] = system: mutant AR which is expressed in LNCaP cells; assay: Androgen receptor-mediated gene transcription, mutant AR of LNCaP cells (luciferase, CV1 cells); type: cell-based, human
[7] = target: T3, human 17α-hydroxylase/C17,20-lyase (Homo sapiens, UniProt P05093); assay: Inhibition of human testicular 17α-hydroxylase/C17,20-lyase (enzyme complex as a whole); type: biochemical
T3 construct: incubating human testicular microsomes; from tissue; host or cells: human testis, microsomes
T3 sequence (P05093 1-508): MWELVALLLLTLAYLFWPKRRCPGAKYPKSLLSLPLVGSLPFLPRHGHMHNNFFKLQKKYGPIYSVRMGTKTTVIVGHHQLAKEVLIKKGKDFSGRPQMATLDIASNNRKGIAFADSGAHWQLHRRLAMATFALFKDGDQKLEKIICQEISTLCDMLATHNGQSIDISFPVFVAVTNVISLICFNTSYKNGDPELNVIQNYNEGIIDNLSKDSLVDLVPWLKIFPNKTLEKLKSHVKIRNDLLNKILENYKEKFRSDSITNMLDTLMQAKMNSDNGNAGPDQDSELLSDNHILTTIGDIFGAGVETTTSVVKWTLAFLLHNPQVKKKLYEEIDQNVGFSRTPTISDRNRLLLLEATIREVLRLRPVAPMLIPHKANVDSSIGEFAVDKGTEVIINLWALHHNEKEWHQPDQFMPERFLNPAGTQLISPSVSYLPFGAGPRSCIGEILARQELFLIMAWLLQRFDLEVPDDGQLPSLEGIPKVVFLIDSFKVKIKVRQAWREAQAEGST
Procedure, shortened: as §1

[8] = system: LNCaP human prostatic tumors; assay: Human prostatic cancer (LNCaP) xenograft in male nude mice; type: in vivo, human (LNCaP) tumors in BALB/c male athymic mice; conditions: five weeks
Protocol: We have reported that inoculation of MCF-7 breast cancer cells in Matrigel increases mammary tumor formation in nude mice (Yue et al., 1994). The same procedure was therefore utilized to develop tumors from human prostatic cancer cells (LNCAP) in male nude mice. BALB/c male athymic mice, 4-6 weeks old, were inoculated sc with LNCaP cells suspended in Matrigel (10 mg/ml). Four sites per mouse were injected with 1.8×10^6 cells in 0.1 ml Matrigel. Treatment began when the tumor reached about 100 mm^3 in volume. Tumors were measured before the treatment began and once a week during treatment. Tumor volume was calculated by the formula 4/3πr1^2 r2 (r1 <r2).At the end of treatment, the mice were sacrificed and individual tumors were weighed. The latency of tumor development was 30-40 days and overall tumorigenicity was 82%.
In a further experiment, two mice were treated with I-16 (1 mg/mouse/day, s.c.) beginning 45 days after cell inoculation. Two mice received vehicle as controls. […] The mean tumor weight was 198.78±72 mg in I-16 treated mice compared to 386.3±147.2 mg in the control group. In other experiments, I-47 and I-49 were effective in controlling tumor growth. The total tumor volume of the control mice increased to 884.0% of the initial volume.

[9] = system: human prostatic tissue (BPH or prostate cancer); assay: Prostate tissue in histoculture, DNA synthesis ([3H]-thymidine uptake); conditions: inhibitor 1 μM
Protocol: We recently developed a histoculture method to evaluate the growth inhibiting properties of the compounds on human prostatic tissue. […] The tissue samples were then incubated for 3 days in fresh medium/treatment containing 2 μCi/ml [^3 H]-thymidine. Tissue was then digested and DNA extracted. For each sample, [^3 H]-thymidine uptake was normalized to DNA content. […] This finding is consistent with the compound acting as an antiandrogen. None of the compounds produced an independent effect on DNA synthesis in the absence of added androgens.

[10] = substrate: CC(=O)[C@H]1CC[C@H]2[C@@H]3CCC4=CC(=O)CC[C@]4(C)[C@H]3CC[C@]12C; assay: Inhibition kinetics of rat 17α-hydroxylase, progesterone substrate; type: biochemical; conditions: other: substrate
[11] = substrate: CC(=O)[C@@]1(O)CC[C@H]2[C@@H]3CCC4=CC(=O)CC[C@]4(C)[C@H]3CC[C@@]21C; assay: Inhibition kinetics of rat C17,20-lyase, 17α-hydroxyprogesterone substrate; type: biochemical; conditions: other: substrate

human androgen receptor (AR), sequence (P10275 whole entry): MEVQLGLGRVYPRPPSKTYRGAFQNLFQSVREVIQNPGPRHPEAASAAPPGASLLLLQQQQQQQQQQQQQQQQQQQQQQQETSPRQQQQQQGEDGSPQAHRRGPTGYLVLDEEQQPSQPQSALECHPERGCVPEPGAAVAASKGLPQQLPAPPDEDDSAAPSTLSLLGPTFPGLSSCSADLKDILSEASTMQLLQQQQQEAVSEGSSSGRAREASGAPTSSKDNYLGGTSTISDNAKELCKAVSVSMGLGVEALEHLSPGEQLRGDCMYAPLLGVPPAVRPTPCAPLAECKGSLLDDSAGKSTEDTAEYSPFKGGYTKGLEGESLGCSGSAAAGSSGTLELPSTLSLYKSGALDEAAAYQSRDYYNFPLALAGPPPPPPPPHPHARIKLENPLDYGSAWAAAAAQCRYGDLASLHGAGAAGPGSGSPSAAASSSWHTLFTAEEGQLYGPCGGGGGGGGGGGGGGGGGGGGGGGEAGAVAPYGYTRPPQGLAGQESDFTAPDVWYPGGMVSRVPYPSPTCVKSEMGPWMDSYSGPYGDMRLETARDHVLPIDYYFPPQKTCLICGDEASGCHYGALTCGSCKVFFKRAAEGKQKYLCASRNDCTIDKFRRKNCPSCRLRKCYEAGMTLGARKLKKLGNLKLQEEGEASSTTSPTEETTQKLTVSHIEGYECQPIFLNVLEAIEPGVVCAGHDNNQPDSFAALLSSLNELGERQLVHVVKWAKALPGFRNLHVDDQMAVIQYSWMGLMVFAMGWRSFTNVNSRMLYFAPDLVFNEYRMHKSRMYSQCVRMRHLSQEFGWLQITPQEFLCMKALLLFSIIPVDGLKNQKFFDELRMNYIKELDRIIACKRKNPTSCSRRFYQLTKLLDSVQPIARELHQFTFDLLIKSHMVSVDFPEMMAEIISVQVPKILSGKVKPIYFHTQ

C[C@]12CC[C@H]3[C@@H](CC=C4C[C@@H](O)CC[C@@]43C)[C@@H]1CC[C@@H]2c1c[nH]cn1 [Compound I-47, 17β-(4'-imidazolyl)-androst-5-en-3β-ol]
effect on adrenal enzyme (in words) [1]: very little effect | reversal of DHT-stimulated LNCaP growth (in words) ([2]; 0.03 nM DHT): dose-dependent reversal | reversal of DHT-stimulated LNCaP growth at 5 μM (in words) ([2]; 0.03 nM DHT, inhibitor 5 μM): nearly complete reversal | reversal of testosterone-stimulated LNCaP growth at 5 μM (in words) ([2]; 0.1 nM testosterone, inhibitor 5 μM): almost completely reversed | reversal of testosterone-stimulated LNCaP growth (in words) ([2]; 0.1 nM testosterone, inhibitor 0.3-5 μM, 9 days): dose-dependent reversal | IC50 ([2]; Homo sapiens, LNCaP, 216 h, read-out: concentration reducing the stimulatory effect of testosterone by 50%): ≤ 1000 nM | IC50 ([3]; Table 1, NI = no inhibition, CI = complete inhibition, read-out: IC50 C17,20 lyase): 23 nM | IC50 ([3]; Table 3, second figure of pair, CI = complete inhibition, read-out: IC50 lyase): 22.6 nM | IC50 ([3]; second figure of pair, read-out: IC50 C17,20-lyase): 7 nM | IC50 ([4]; Table 1, NI = no inhibition, read-out: IC50 17α-OHase): 25 nM | IC50 ([4]; Table 3, first figure of 17α-hydroxylase/lyase pair, read-out: IC50 17α-hydroxylase): 25.2 nM | IC50 ([4]; first figure of pair, read-out: IC50 17α-hydroxylase): 11 nM | antagonism of wild-type AR (in words) [5]: dose-dependent antagonism | agonism/antagonism at mutant AR of LNCaP cells (in words) [6]: antagonist; also recorded: not an agonist of the mutant receptor | inhibition of 17α-hydroxylase/C17,20-lyase (in words) ([7]; NI = no inhibition): potent inhibitors | times more potent than ketoconazole ([7]; vs ketoconazole): 10-50 times | total tumor volume (% of initial volume), 5 weeks ([8]; 4 mice per group, control 884.0%, FIG. 2): 525.8% | mean tumor weight, 5-week experiment ([8]; control 1310.5±1125.9 mg, I-49 p<0.05 vs control): 607.0 ± 142.4 mg | reversal of DHT-stimulated DNA synthesis (in words), 1 μM ([9]; DHT 10 nM): almost completely reversed | reversal of testosterone-stimulated DNA synthesis (in words), 1 μM ([9]; testosterone 1 μM, FIG. 1): almost complete reversal

B1: rat 17α-hydroxylase (Rattus norvegicus) (protein)
chain: MWELVGLLLLILAYFFWVKSKTPGAKLPRSLPSLPLVGSLPFLPRRGHMHVNFFKLQEKYGPIYSLRLGTTTTVIIGHYQLAREVLIKKGKEFSGRPQMVTQSLLSDQGKGVAFADAGSSWHLHRKLVFSTFSLFKDGQKLEKLICQEAKSLCDMMLAHDKESIDLSTPIFMSVTNIICAICFNISYEKNDPKLTAIKTFTEGIVDATGDRNLVDIFPWLTIFPNKGLEVIKGYAKVRNEVLTGIFEKCREKFDSQSISSLTDILIQAKMNSDNNNSCEGRDPDVFSDRHILATVGDIFGAGIETTTTVLKWILAFLVHNPEVKKKIQKEIDQYVGFSRTPTFNDRSHLLMLEATIREVLRIRPVAPMLIPHKANVDSSIGEFTVPKDTHVVVNLWALHHDENEWDQPDQFMPERFLDPTGSHLITPTQSYLPFGAGPRSCIGEALARQELFVFTALLLQRFDLDVSDDKQLPRLEGDPKVVFLIDPFKVKITVRQAWMDAQAEVST
Km [10]: 0.029 µM

B2: rat C17,20-lyase (Rattus norvegicus) (protein)
chain: MWELVGLLLLILAYFFWVKSKTPGAKLPRSLPSLPLVGSLPFLPRRGHMHVNFFKLQEKYGPIYSLRLGTTTTVIIGHYQLAREVLIKKGKEFSGRPQMVTQSLLSDQGKGVAFADAGSSWHLHRKLVFSTFSLFKDGQKLEKLICQEAKSLCDMMLAHDKESIDLSTPIFMSVTNIICAICFNISYEKNDPKLTAIKTFTEGIVDATGDRNLVDIFPWLTIFPNKGLEVIKGYAKVRNEVLTGIFEKCREKFDSQSISSLTDILIQAKMNSDNNNSCEGRDPDVFSDRHILATVGDIFGAGIETTTTVLKWILAFLVHNPEVKKKIQKEIDQYVGFSRTPTFNDRSHLLMLEATIREVLRIRPVAPMLIPHKANVDSSIGEFTVPKDTHVVVNLWALHHDENEWDQPDQFMPERFLDPTGSHLITPTQSYLPFGAGPRSCIGEALARQELFVFTALLLQRFDLDVSDDKQLPRLEGDPKVVFLIDPFKVKITVRQAWMDAQAEVST
Km [11]: 0.076 µM
